The text below walks through data of patent US10722478B2, “Methods and compositions for treating fatigue associated with disordered sleep using very low dose cyclobenzaprine” (Tonix Pharma Holdings Limited, priority 2010, dated 2020).

Test [1] has as its system person with traumatic brain injury. The note with it: 5 mg at bedtime; within three weeks. The method, then: A person survived a serious motor vehicle accident with closed head trauma. They underwent six months of physical rehabilitation. […] Because of the spasticity, the neurologist recommended six months of additional physical rehabilitation. […], characterized by both difficulty falling asleep and early-morning awakening. Their neurologist prescribed cyclobenzaprine at a dose of 5 mg at bedtime.

Another test concerns fibromyalgia patients. The note with it: 10 to 40 mg over a 12-week period; cited from earlier work.
Another test concerns FM patients. Conditions: response threshold CAPA2+A3(Norm)≤33%; ITT, LOCF; vs. 33% with placebo, p=0.019.
Test [2] has as its system person diagnosed with multiple sclerosis. The note with it: 2 mg then 4 mg at bedtime. As to the method: A person was diagnosed with multiple sclerosis three years ago. […] However, they have noted that throughout the day they have very low energy levels. Their capacity for physical and mental work has declined to the point where they are unable to function at work. They report getting 6 to 8 hours of sleep each night but feels unrefreshed in the morning. […] They began taking cyclobenzaprine initially at a dose of 2 mg at bedtime. Their doctor increased the dose to 4 mg at bedtime. […] Their doctor asks them to assess their level of fatigue on a scale of 1 to 10 before and after cyclobenzaprine treatment.

Description for FM patients: Therefore, an analysis of sleep EEC CAP was performed that measured subtypes CAP A1, CAP A2, and CAP A3 and Total CAP (or CAP A1+A2+A3). Subtype CAP A1 is associated with sleep maintenance or least sleep instability, and subtypes CAP A2 and A3 are associated with moderate to prominent increases in sleep instability.
Because CAP A2 and A3 are most closely associated with sleep instability^26,27, the sum of CAPA2+CAPA3 rates (CAPA2+A3) was used as an indicator of disordered sleep. CAPA2+A3 was normalized (CAPA2+A3(Norm)) by dividing CAPA2+A3 by the total CAP rate (CAPtotal=CAPA1+CAPA2+CAPA3 rates=CAPA1+A2+A3) and expressed as a percentage. Therefore, CAPA2+A3(Norm)=100*CAPA2+A3/CAPA1+A2+A3 and this reflects the percentage of total CAP that is associated with sleep instability.
To determine whether patients experienced nights with a potential CAP response to treatment, it was necessary to determine an empirical threshold below which CAPA2+A3(Norm) values reflect a night of relatively stable sleep for this population. To determine a threshold for CAPA2+A3(Norm) that could be informative for a potential treatment response, the study CAP data were then evaluated by considering a range of cutoff values for CAPA2+A3(Norm) from ≤10% to ≤50%.
Data were coded such that improvements were positive.

In the case of `CN(C)CCC=C1c2ccccc2C=Cc2ccccc21` [cyclobenzaprine, 3-(5H-dibenzo[a,d]cyclohepten-5-ylidene)-N,N-dimethyl-1-propanamine], in test [1], the “level of energy and concentration” value is given as “markedly better”; the sleep entry was “improved substantially”. Also, in the test with fibromyalgia patients, the muscle tightness result was “reduction”, the pain score entry is on record as “significantly improved”, the quality of sleep result is “significantly improved” and the “total number of tender points” value was “reduction”. Moreover, the “percentage of patients with increased nights of CAP response while on treatment” value in the test on FM patients came out at 72%. Besides, in test [2] (with each dose), the “level of energy during the day” value is “increased” and the quality of sleep entry is recorded as “improved”. Moreover, the “level of fatigue on a scale of 1 to 10 after treatment” value in test [2] (before treatment 9/10) is recorded as 3/10.
